Experimental data: US12115208B2, “Small-molecule adjuvants for antibiotics to address antibiotic resistance” (HIGH POINT UNIVERSITY, priority 2017, dated 2024)

How the values were obtained:
S. aureus ATCC 29213 = test: Minimum inhibitory concentration, broth microdilution; type: cell-based; conditions: Staphylococcus aureus, ATCC29213; compound alone; S. aureus ATCC 29213; CAMHB, 18 h; read-out: MIC
Description: (§1) The compounds were then analyzed for antibiotic repotentiation activity. […] The tested strains included USA300, which is a common and particularly virulent strain of community-acquired MRSA.

[1] = system: S. aureus ATCC 43300 (MRSA); test: as above; type: cell-based, Staphylococcus aureus; conditions: Staphylococcus aureus; compound alone; S. aureus ATCC 43300 (MRSA); CAMHB, 18 h; read-out: MIC
Description: as §1

S. aureus USA300 (MRSA) = test: as above; type: cell-based, Staphylococcus aureus; conditions: Staphylococcus aureus; compound alone; S. aureus USA300 (MRSA); CAMHB, 18 h; read-out: MIC
Description: as §1

[2] = system: various S. aureus strains; test: microbe, parasite or virus in culture; conditions: Staphylococcus aureus, read-out: MICs
[3] = system: S. aureus NR-49120 (VRSA); test: Antibiotic repotentiation (antibiotic MIC with/without compound); type: cell-based, Staphylococcus aureus; conditions: +50 μM compound, S. aureus NR-49120 (VRSA)
Description: (§2) The overnight culture was diluted into fresh CAMHB to a concentration of 5×10^5 CFU/ml. […] On the same plate, a standard microdilution MIC with the tested antibiotics and no added compound was also performed to compare the antibiotic MIC in the presence and absence of compound. […] Fold reductions were calculated by dividing the MIC of the antibiotic without compound by the MIC of the antibiotic in the presence of compound.

S. aureus USA100 (MRSA) = test: as above; type: cell-based, Staphylococcus aureus; conditions: +50 μM compound, S. aureus USA100 (MRSA)
Description: as §2

S. epidermidis 49461 = test: Antibiotic repotentiation (oxacillin MIC with/without compound); type: cell-based, Staphylococcus epidermidis; conditions: +50 μM compound, S. epidermidis 49461
Description: as §2
Antibiotic potentiation in S. epidermidis was also investigated.

MRSA 43300 biofilm = test: Biofilm inhibition, crystal violet assay; type: cell-based, Staphylococcus aureus; conditions: 30 h
Description: A standard static crystal violet assay was used to quantify biofilm inhibition.^45 Cultures of S. aureus or S. epidermidis were grown overnight in TSBG (tryptic soy broth with 5% glucose) at 37° C. with shaking. These cultures were used to inoculate fresh TSBG to a calculated optical density of 0.01 at 600 nm (OD600). […] Untreated aliquots were used as a positive control and water served as a negative control. 100 μl of these suspensions were added to the wells of a 96-well polyvinylchloride microtiter plate. […] After incubation, media was discarded and the plates were washed with water to remove non-adherent cells. Adherent biofilms were stained with 110 μl of crystal violet (0.1% in water) and incubated at room temperature for thirty minutes. The crystal violet staining solution was discarded and plates were washed with water to remove excess stain. The resulting stained biofilms were solubilized with 200 μL of 95% ethanol for 10 minutes. 125 μl of the ethanol solutions were transferred to a clear polystyrene microtiter plate for evaluation. Absorbance at 540 nm was recorded using a BioTek Synergy H1 microplate reader. The absorbance of the negative control lanes was subtracted from the experimental values to account for background staining. Percent inhibition was calculated by comparison of the absorbance values of control versus treated wells under identical conditions.
Antibiotic resistance and biofilm formation share similar regulatory mechanisms. […] Biofilm inhibition was first assessed in S. aureus 43300, a methicillin-resistant strain (see Table 18). As described in Materials and Methods, a standard crystal violet assay was used to assess biofilm inhibition by the tested compounds. The IC50 is described as the compound concentration required to inhibit 50% of biofilm formation. The standard deviation is calculated from at least 3 independent experiments.

MIC (S. aureus ATCC 29213): > 200 µM
MIC [1]: > 200 µM
MIC (S. aureus USA300 (MRSA)): > 200 µM
MIC [2]: > 200 µM
Oxacillin MIC [3]: 16 µg/mL
Oxacillin MIC (S. aureus USA100 (MRSA)): 0.5 µg/mL
Oxacillin MIC (S. epidermidis 49461): 16 µg/mL
IC50 (MRSA 43300 biofilm): 11.5 µM
IC50 (MRSA 43300 biofilm; Staphylococcus aureus, MRSA): 11.4 µM
Compound: CCOC(=O)N1CCC(=C2c3ccc(Cl)cc3CCc3cccnc32)CC1 [Loratadine, ethyl 4-(8-chloro-5,6-dihydrobenzo[1,2]cyclohepta[2,4-b]pyridin-11-ylidene)piperidine-1-carboxylate]
Fold Reduction ([3]; oxacillin MIC): 8
Fold Reduction (S. aureus USA100 (MRSA); oxacillin MIC): 512
Fold Reduction (S. epidermidis 49461; oxacillin MIC): 1
